The source made the active and inactive calls. The rule behind the calls is not given here.

Assay [1] can be described thus: Inhibition of PP2A.
The nature of assay [2]: Inhibition of PP1.

`C=C1[C@@H](O)[C@@H]2O[C@]3(CC[C@H](/C=C/[C@@H](C)[C@@H]4CC(C)=C[C@@]5(O[C@H](C[C@@](C)(O)C(=O)OC/C(C)=C/C=C/CCO)CC[C@H]5O)O4)O3)CC[C@H]2O[C@@H]1[C@@H](O)C[C@H](C)[C@H]1O[C@@]2(CCCCO2)CC[C@H]1C`: the result in assay [1] and in assay [2] was inactive.
As for `C=C1[C@@H](O)[C@@H]2O[C@]3(CC[C@H](/C=C/[C@@H](C)[C@@H]4CC(C)=C[C@@]5(O[C@H](C[C@@](C)(O)C(=O)OC/C(C)=C/C=C/CO)CC[C@H]5O)O4)O3)CC[C@H]2O[C@@H]1[C@@H](O)C[C@H](C)[C@H]1O[C@@]2(CCCCO2)CC[C@H]1C`, the outcome in assay [1] and in assay [2] was inactive.
As for `C=C1[C@@H](O)[C@@H]2O[C@]3(CC[C@H](/C=C/[C@@H](C)[C@@H]4CC(C)=C[C@@]5(O[C@H](C[C@@](C)(O)C(=O)OC)CC[C@H]5O)O4)O3)CC[C@H]2O[C@@H]1[C@@H](O)C[C@H](C)[C@H]1O[C@@]2(CCCCO2)CC[C@H]1C`, the result in assay [1] and in assay [2] was inactive.
